# Measured values reported in BigSolDB 2.1.
compound,measurement,setting,value
CC(C)C(=O)OCC(=O)[C@@]12O[C@H](C3CCCCC3)O[C@@H]1C[C@H]1[C@@H]3CCC4=CC(=O)C=C[C@]4(C)[C@H]3[C@@H](O)C[C@@]12C,solubility (mole fraction),"in acetonitrile, 278.15 K",0.00485
same,solubility (mole fraction),"in acetonitrile, 280.65 K",0.00528
same,solubility (mole fraction),"in acetonitrile, 283.15 K",0.00576
same,solubility (mole fraction),"in acetonitrile, 285.65 K",0.00626
same,solubility (mole fraction),"in acetonitrile, 288.15 K",0.00687
same,solubility (mole fraction),"in acetonitrile, 290.65 K",0.00739
same,solubility (mole fraction),"in acetonitrile, 293.15 K",0.008
same,solubility (mole fraction),"in acetonitrile, 295.65 K",0.00865
same,solubility (mole fraction),"in acetonitrile, 298.15 K",0.00937
same,solubility (mole fraction),"in acetonitrile, 300.65 K",0.0101
same,solubility (mole fraction),"in acetonitrile, 303.15 K",0.0109
same,solubility (mole fraction),"in acetonitrile, 305.65 K",0.0117
same,solubility (mole fraction),"in acetonitrile, 308.15 K",0.0126
same,solubility (mole fraction),"in acetonitrile, 310.65 K",0.0135
same,solubility (mole fraction),"in acetonitrile, 313.15 K",0.0143
same,solubility (mole fraction),"in ethanol, 278.15 K",0.00231
same,solubility (mole fraction),"in ethanol, 280.65 K",0.00276
same,solubility (mole fraction),"in ethanol, 283.15 K",0.00333
same,solubility (mole fraction),"in ethanol, 285.65 K",0.00398
same,solubility (mole fraction),"in ethanol, 288.15 K",0.00478
same,solubility (mole fraction),"in ethanol, 290.65 K",0.00568
same,solubility (mole fraction),"in ethanol, 293.15 K",0.00674
same,solubility (mole fraction),"in ethanol, 295.65 K",0.00796
same,solubility (mole fraction),"in ethanol, 298.15 K",0.00937
same,solubility (mole fraction),"in ethanol, 300.65 K",0.011
same,solubility (mole fraction),"in ethanol, 303.15 K",0.0129
same,solubility (mole fraction),"in ethanol, 305.65 K",0.0151
same,solubility (mole fraction),"in ethanol, 308.15 K",0.0176
same,solubility (mole fraction),"in ethanol, 310.65 K",0.0204
same,solubility (mole fraction),"in ethanol, 313.15 K",0.0237
same,solubility (mole fraction),"in ethyl acetate, 278.15 K",0.0515
same,solubility (mole fraction),"in ethyl acetate, 280.65 K",0.0559
same,solubility (mole fraction),"in ethyl acetate, 283.15 K",0.0604
same,solubility (mole fraction),"in ethyl acetate, 285.65 K",0.0653
same,solubility (mole fraction),"in ethyl acetate, 288.15 K",0.0704
same,solubility (mole fraction),"in ethyl acetate, 290.65 K",0.076
same,solubility (mole fraction),"in ethyl acetate, 293.15 K",0.0818
same,solubility (mole fraction),"in ethyl acetate, 295.65 K",0.088
same,solubility (mole fraction),"in ethyl acetate, 298.15 K",0.0945
same,solubility (mole fraction),"in ethyl acetate, 300.65 K",0.101
same,solubility (mole fraction),"in ethyl acetate, 303.15 K",0.109
same,solubility (mole fraction),"in ethyl acetate, 305.65 K",0.116
same,solubility (mole fraction),"in ethyl acetate, 308.15 K",0.124
same,solubility (mole fraction),"in ethyl acetate, 310.65 K",0.133
same,solubility (mole fraction),"in ethyl acetate, 313.15 K",0.141
same,solubility (mole fraction),"in isopropanol, 278.15 K",0.00814
same,solubility (mole fraction),"in isopropanol, 280.65 K",0.00948
same,solubility (mole fraction),"in isopropanol, 283.15 K",0.0111
same,solubility (mole fraction),"in isopropanol, 285.65 K",0.013
same,solubility (mole fraction),"in isopropanol, 288.15 K",0.0151
same,solubility (mole fraction),"in isopropanol, 290.65 K",0.0175
same,solubility (mole fraction),"in isopropanol, 293.15 K",0.0203
same,solubility (mole fraction),"in isopropanol, 295.65 K",0.0234
same,solubility (mole fraction),"in isopropanol, 298.15 K",0.0271
same,solubility (mole fraction),"in isopropanol, 300.65 K",0.0312
same,solubility (mole fraction),"in isopropanol, 303.15 K",0.0359
same,solubility (mole fraction),"in isopropanol, 305.65 K",0.0411
same,solubility (mole fraction),"in isopropanol, 308.15 K",0.047
same,solubility (mole fraction),"in isopropanol, 310.65 K",0.0536
same,solubility (mole fraction),"in isopropanol, 313.15 K",0.061
same,solubility (mole fraction),"in n-butanol, 278.15 K",0.0669
same,solubility (mole fraction),"in n-butanol, 280.65 K",0.0689
same,solubility (mole fraction),"in n-butanol, 283.15 K",0.0716
same,solubility (mole fraction),"in n-butanol, 285.65 K",0.0743
same,solubility (mole fraction),"in n-butanol, 288.15 K",0.0779
same,solubility (mole fraction),"in n-butanol, 290.65 K",0.0815
same,solubility (mole fraction),"in n-butanol, 293.15 K",0.0852
same,solubility (mole fraction),"in n-butanol, 295.65 K",0.0898
same,solubility (mole fraction),"in n-butanol, 298.15 K",0.0942
same,solubility (mole fraction),"in n-butanol, 300.65 K",0.0993
same,solubility (mole fraction),"in n-butanol, 303.15 K",0.105
same,solubility (mole fraction),"in n-butanol, 305.65 K",0.111
same,solubility (mole fraction),"in n-butanol, 308.15 K",0.118
same,solubility (mole fraction),"in n-butanol, 310.65 K",0.124
same,solubility (mole fraction),"in n-butanol, 313.15 K",0.131
same,solubility (mole fraction),"in n-propanol, 278.15 K",0.0141
same,solubility (mole fraction),"in n-propanol, 280.65 K",0.0164
same,solubility (mole fraction),"in n-propanol, 283.15 K",0.0191
same,solubility (mole fraction),"in n-propanol, 285.65 K",0.0222
same,solubility (mole fraction),"in n-propanol, 288.15 K",0.025
same,solubility (mole fraction),"in n-propanol, 290.65 K",0.029
same,solubility (mole fraction),"in n-propanol, 293.15 K",0.0334
same,solubility (mole fraction),"in n-propanol, 295.65 K",0.0385
same,solubility (mole fraction),"in n-propanol, 298.15 K",0.0437
same,solubility (mole fraction),"in n-propanol, 300.65 K",0.05
same,solubility (mole fraction),"in n-propanol, 303.15 K",0.0567
same,solubility (mole fraction),"in n-propanol, 305.65 K",0.0644
same,solubility (mole fraction),"in n-propanol, 308.15 K",0.0728
same,solubility (mole fraction),"in n-propanol, 310.65 K",0.0825
same,solubility (mole fraction),"in n-propanol, 313.15 K",0.0925
same,solubility (mole fraction),"in toluene, 278.15 K",0.0297
same,solubility (mole fraction),"in toluene, 280.65 K",0.0318
same,solubility (mole fraction),"in toluene, 283.15 K",0.0342
same,solubility (mole fraction),"in toluene, 285.65 K",0.0367
same,solubility (mole fraction),"in toluene, 288.15 K",0.0392
same,solubility (mole fraction),"in toluene, 290.65 K",0.0421
same,solubility (mole fraction),"in toluene, 293.15 K",0.0449
same,solubility (mole fraction),"in toluene, 295.65 K",0.0479
same,solubility (mole fraction),"in toluene, 298.15 K",0.0511
same,solubility (mole fraction),"in toluene, 300.65 K",0.0544
same,solubility (mole fraction),"in toluene, 303.15 K",0.0579
same,solubility (mole fraction),"in toluene, 305.65 K",0.0616
same,solubility (mole fraction),"in toluene, 308.15 K",0.0654
same,solubility (mole fraction),"in toluene, 310.65 K",0.0694
same,solubility (mole fraction),"in toluene, 313.15 K",0.0735
